Where two headings read alike, the source gives them in different places.
Legend:
[1] = test system: human GADD45α gene promoter and regulatory element linked to Gaussia luciferase (GD532-GLuc) in TK6 cells; assay: GLuc genotoxicity assay: GLuc-T01 cells (TK6 with pEP-GD532-GLuc), 48 hour endpoint, without S9
Protocol: The assay has the following steps, as further described below: (1) preparing a microplate for use in an assay; (2) conducting the assay in the microplates; (3) collecting and analysing the data; and (4) making a judgment on genome damage and the consequences.
The assay is performed using a microplate reader capable of luminescence and absorbance readings, equipped with injectors capable of single well additions.
Using the standard dilution protocol described here, all concentrations are halved in the microplate well when a sample volume of 75 μl is combined with 75 μl of cell culture. All standard and test chemicals and reagents should be prepared fresh shortly before the assay is performed.
An initial concentration of 2 mM or 1 mg/ml (whichever is lowest) is recommended (equating to 1 mM or 500 μg/ml of test compound on the microplate). It is desirable that the test compound is fully soluble at the top concentration tested. A minimum of 250 μl of each test compound is required per plate. […] If the compound precipitates from solution when the DMSO standard is added to water, the original DMSO stock standard can be diluted further with 100% DMSO. The 20 μl+980 μl water dilution step is then repeated to produce a fresh test standard.
Standard cell culture methods are used to prepare GLuc-TO1 cells for use in the assay. […] Cells are grown in routine culture medium:
The following standard protocol may be followed. […] To achieve this, 150 microlitres of the test chemical solution are put into a microplate well. […] This produces 9 serial dilutions of 75 microlitres each.
75 μl of GLuc-T01 cells in Assay Medium (GS-HC-AM) as described above are then added to each well as appropriate.
The following controls are included in the microplate: • a. Blank well. • b. Test compound/sample alone. • c. Assay medium alone. • d. Control compound with cells.
Once finished, the microplates are covered with a breathable membrane. […] Plates should be incubated and analysed after 48 hours +/−2 hours.
Plates are first read for absorbance in each well, at a wavelength of ˜620 nm. […] An example of a suitable reader and injector system is a Tecan Infinite F500
Following the 48 hour incubation, luminescence and absorbance data are collected from the microplates. A microplate reader combining luminescence and absorbance functionality is used; by way of example, this reader may be a Tecan Infinite F500 (Tecan UK Ltd.). Luminescence data are collected with an integration time of 3 seconds after injection of the substrate and shaking of the microplate (within the reader). Optical absorbance is measured through a 600 nm or 620 nm filter. These luminescence and absorbance data are transported into a Microsoft Excel spreadsheet, and converted to graphical data. […] Luminescence data are divided by absorbance data to give ‘brightness units’, the measure of average GLuc induction per cell. […] In this way, one can distinguish between a small number of highly luminescent cells and a large number of weakly luminescent cells. The decision (see below), on whether or not a compound is classified as being genotoxic is generated automatically within the software.
The cytotoxicity threshold is set at 80% of the cell density reached by the untreated control cells.
Anomalous brightness data is generated when the toxicity leads to a final cell density less than 30% that of the blank. Genotoxicity data is not calculated above this toxicity threshold.
A series of genotoxicity assays were performed using a TK6 cell line having the GD532-GLuc expression cassette (a “GLuc assay”). The assays were performed using the experimental protocol provided in a later example.

[2] = test system: GADD45α-FLuc expression cassette (GD532-L) in TK6 cells; assay: FLuc genotoxicity assay: TK6 cells with GADD45α-FLuc (GD532-L) expression cassette; conditions: for detection as genotoxic with FLuc at the 48 hour endpoint: FLuc measured 8-48 hours after treatment, FIG. 4
Excerpt: The reagents for the FLuc assay were originally taken from the article Wettey F R, Jackson A P. Luciferase Reporter Assay. In: Reviews and Protocols in DT40 Research. […] The reagents and their concentrations are listed below. The pH of both mixes is adjusted to pH 7.8 in order to maximise the light output from luciferase.
It was decided to directly lyse the TK6 cells in the GreenScreen HC assay medium as to pellet and wash the cells would add additional steps to the protocol and therefore increase variability into the data. […] The solution of this combined lysis and assay mix (L&A buffer) is shown below.
The final concentration listed above is the concentration of the reagents after the L&A buffer has been combined with the GreenScreen HC assay media. The final concentration of the reagents is fixed and based on the information from the Wettey and Jackson protocol. The FLuc assay as it is currently performed relies on the addition of 40 μl of L&A buffer to 120 μl of GreenScreen HC assay buffer. Therefore, the initial concentration of the reagents in the L&A buffer has to be four times greater than the desired final concentration. The L&A buffer should be pH 8.0 as when the L&A buffer is combined with the GreenScreen HC assay medium (pH 7.2) this give a final pH of ˜7.8.
The preparation of pEP-GD532-GLuc is described in the accompanying examples. Using a similar strategy the inventors also prepared plasmid pEP-GD532-L, in which FLuc is used as the reporter protein. TK6 cells are transfected with a plasmid having a GD532-L or GD532-GLuc expression cassette by electroporation and clones bearing the reporter plasmids are selected.
The inventors wished to determine which of the GLuc and FLuc reporter proteins were most suitable for use in a genotoxicity assay. To determine this, they performed a series of experiments in which cells having the GD532-L or GD532-GLuc expression cassette were exposed to a test compound, and the activity of GLuc and FLuc measured and compared to the standard GADD45α-GFP expression cassette.
FLuc cells were combined with a several known genotoxins and non-genotoxins. FLuc expression was measured at 8, 16, 24, 32, 40 and 48 hours after treatment.

[3] = test system: GD532-GLuc reporter in GLuc-T01 cells with S9 liver extract; assay: S9 metabolic activation GLuc assay with thiazole orange cell number estimation; conditions: TO cell number estimation, threshold 1.5, FIG. 7B
Protocol: In an S9-incorporating assay, GLuc-T01 cells are exposed to the test compound in the presence of the S9 extract in a mixture with enzyme co-factors (for example, glucose-6-phosphate (2.5 mM) and β-nicotinamide adenine dinucleotide phosphate (0.5 mM)). The S9 extract is normally used at a final concentration of 1% (v/v) in the assay microplate. […] The conditions of an S9-incorporating assay (for example, time of exposure and type of S9—animal species, chemical induction of hepatic enzymes etc.) may be varied according to experimental requirements.
The cell stain used in the adapted protocol is thiazole orange (TO) which is a cyanine dye that binds to nucleic acids. The binding of TO to DNA and RNA greatly enhances its fluorescence intensity, allowing for its detection without the need to wash away background, unbound TO.
The method requires GLuc-T01 cells to be lysed to allow access to the DNA of all cells present in the microplate well.
In the microplate, the final concentration of TO is 15 μM and for Triton-X100 it is 1% (v/v).
Where the assay includes S9 liver extracts, the genotoxic threshold is set at a relative GLuc induction of 1.5 (i.e. an 50% increase).

[4] = test system: GADD45α-GFP expression cassette in TK6 cells; assay: GADD45α-GFP reporter assay (GreenScreen HC); format: cell-based, human; conditions: FIG. 3, 24 hour timeframe
Protocol: Studying FIG. 3 allows for the construction of a number of hypotheses regarding the stability of the reporter proteins and how this will affect the GreenScreen HC assay. The FLuc protein has been reported to have a half-life within cells of ˜3 hours. In comparison, GFP has been reported to have a half-life within cells of ˜26 hours. In this respect GFP can be considered to give more of a cumulative measure of GADD45α induction whilst FLuc will report only on recent GADD45 induction.

[5] = TK6 with GD532-GLuc, 48 hour endpoint
[6] = lowest test compound concentration that produces a relative GLuc induction greater than the 1.8 threshold

SMILES	GLuc Genotox Result [1]	GLuc Genotox LEC ([1]; human, 48 h) [µg/mL]	other results
CCc1nc(N)nc(N)c1-c1ccc(Cl)cc1 [Pyrimethamine]	+++	0.39	–
COc1cc2c(c(OC)c1OC)-c1ccc(OC)c(=O)cc1[C@@H](NC(C)=O)CC2 [Colchicine]	–	–	genotoxicity outcome in the GLuc assay (in words) [1, 5]: correctly identified; detection as genotoxic with FLuc at the 48 hour endpoint [2]: would not have been detected as genotoxic
O=c1[nH]cc(F)c(=O)[nH]1 [5-Fluorouracul]	–	–	genotoxicity outcome in the GLuc assay (in words) [1, 5]: correctly identified; GLuc Genotox LEC [1, 6]: 0.63 µg/mL; detection as genotoxic with FLuc at the 48 hour endpoint [2]: would not have been detected as genotoxic
COC1=CC(=O)C[C@@H](C)[C@]12Oc1c(Cl)c(OC)cc(OC)c1C2=O [Griseofulvin]	+++	–	–
Nc1cc2c3ccccc3ccc2c2ccccc12 [6-Aminochrysene]	–	–	detection of pro-genotoxin in S9 GLuc assay [3]: detected
Nc1ncn([C@@H]2O[C@H](CO)[C@@H](O)[C@H]2O)c(=O)n1 [5-Azacytidine]	+++	0.38	–
COS(C)(=O)=O [Methyl methanesulfonate]	+++	6.25	–
NC(=O)NO [Hydroxyurea]	–	4.75	–
CC[C@]1(O)C[C@H]2CN(CCc3c([nH]c4ccccc34)[C@@](C(=O)OC)(c3cc4c(cc3OC)N(C=O)[C@H]3[C@@](O)(C(=O)OC)[C@H](OC(C)=O)[C@]5(CC)C=CCN6CC[C@]43[C@@H]65)C2)C1 [Vincristine Sulphate]	+++	0.0008	–
CN(N=O)C(N)=O [N-Nitroso-N-methylurea]	–	–	GLuc Genotox LEC [1, 6]: 8.05 µg/mL; test concentration at which the highest relative induction is seen ([2]; FLuc reporter, FIG. 3, 24 hour timeframe): 32 µg/mL; concentrations that cause significant cell death ([2]; TK6 reporter cells, FIG. 3, explains decrease in FLuc signal): greater than 32 μg/ml; concentration at which GADD45α induction (GFP signal) peaks [4]: at least 258 μg/ml
C[C@@]1(CO)[C@H](O)CC[C@@]2(C)[C@H]1CC[C@H]1C[C@@H]3C[C@@]12CC[C@]3(O)CO [Aphidicolin]	–	–	GLuc Genotox LEC [1, 6]: 0.13 µg/mL
OO [Hydrogen Peroxide]	+++	5.00	–
OCCO [ethylene glycol]	–	–	genotoxicity outcome in the GLuc assay (in words) [1, 5]: correctly identified
CC[C@@]1(O)C(=O)OCc2c1cc1n(c2=O)Cc2cc3ccccc3nc2-1 [Camptothecin]	–	–	GLuc Genotox LEC [1, 6]: 0.08 µg/mL
COc1cc([C@@H]2c3cc4c(cc3[C@@H](O[C@@H]3O[C@@H]5CO[C@@H](C)O[C@H]5[C@H](O)[C@H]3O)[C@H]3COC(=O)[C@H]23)OCO4)cc(OC)c1O [Etoposide]	+++	–	genotoxicity outcome in the GLuc assay (in words) [1]: positive
CC(=O)O[C@H]1C(=O)[C@@]2(C)[C@H]([C@H](OC(=O)c3ccccc3)[C@]3(O)C[C@H](OC(=O)[C@H](O)[C@@H](NC(=O)c4ccccc4)c4ccccc4)C(C)=C1C3(C)C)[C@]1(OC(C)=O)CO[C@@H]1C[C@@H]2O [Paclitaxel (Taxol), Paclitaxel]	+++	0.03	–
CCCCNC(=O)n1c(NC(=O)OC)nc2ccccc21 [Benomyl]	+++	1.81	–
